Test results reported in EP3282019A1, “[…] TREATMENT OF CANCER, IN […] L[…]” (priority 2016, dated 2018).

Key:
[1] = test system: NOTCH2 (N2^IC / Mastermind / CSL) transcription factor complex; assay: EMSA of DNA-bound NOTCH2 complexes in nuclear extracts of CLL cells; assay type: cell-based, human
Method: Preparation of nuclear extracts and EMSA: 3x10^7 cells were lysed in 1ml hypotonic buffer (10mM HEPES, pH 7.9; 1.5mM MgCl2; 10mM KCL) containing 0.15% NP-40 at 4°C for 10 min. The nuclear proteins were extracted from the nuclear fraction by resuspending the nuclei in 100µl extraction buffer (300mM KCl; 1.5mM MgCl2; 20mM HEPES pH 7.9; 0.2mM EDTA; 25% Glycerin) at 4°C for 20 min with constant agitation. The CSL site spanning EMSA probe was derived from the CD23a promoter (5'-[…]-3' (SEQ ID NO: 40) annealed with the reverse complementary strand). The N1^IC (bTAN 20) and N2^IC (C651.6DbHN) antibodies was obtained from the Developmental Studies Hybridoma Bank (University of Iowa, Department of Biological Science, Iowa City, IA). EMSA was performed essentially as described (Hubmann et al., 2010)

[2] = test system: NOTCH and apoptosis related genes; assay: semiquantitative RT-PCR of NOTCH and apoptosis related genes in CLL cells; assay type: cell-based, human; details: for NOTCH3 expression / NR4A1 expression: Fig 3A, right panel
Text: PCR, RT-PCR, and Western blot analysis: Total RNA was extracted using the Trizol isolation system (Invitrogen/Life Technologies, Paisley, UK). Genomic DNA (gDNA) was extracted using the Wizard Genomic DNA extraction kit from Promega. M-MLV reverse transcriptase and GoTaq PCR kits (Promega, WI, USA) were used for semiquantitative reverse transcriptase polymerase chain reactions (RT-PCR).
PCR and RT-PCR techniques (long range PCR using genomic DNA, semiquantitative RT-PCR), and western blotting (Modular Mini-Protean II system from Bio Rad) were used routinely according to standard protocols.

CLL cells [3] = assay: FACS detection of apoptosis (AnnexinV / propidium iodide) in CLL cells, PMA activation model; assay type: cell-based, human
Method: Cell lines and culture: CLL cells were cultured in RPMI 1640 medium containing 10% fetal calf serum, 100U/ml penicillin and […] streptomycin at 37 °C, 7.5% CO2 in humidified atmosphere. The ex vivo CLL microenvironment model based on using primary human bone marrow stromal cells in co-culture with CLL cells was applied as previously described and was used for analysing the effect of gliotoxin, RO4929097, and blocking antibodies on CLL cells in a milieu resembling the situation in vivo (Shehata et al., 2004). The PMA activation model was used to analyse the function of PKC stimulation on the regulation of NOTCH2/NOTCH3 signalling in CLL cells.
Flow cytometry (FACS) and detection of cell viability: Antibodies (CD5, CD19, CD20, CD23, CD49d, CD37, CD52, and 7-Aminoactinomycin D (7-AAD) were purchased from Becton Dickinson (San Jose, CA). Species- and isotype-matched irrelevant antibodies are used as controls. Flow cytometry was performed on a FACScan® using CellQuest Pro software version 5.2.1 (Becton Dickinson, San Jose, CA). Ultra high speed cell sorting was used to isolate CD5+/CD19+ CLL cells from normal B-cells (CD19+/CD5-) and T-cells (CD3+). AnnexinV, propidium iodide, and 7-AAD staining was performed to estimate the percentages of cells undergoing apoptosis. The overall effect on cell viability was calculated as the sum of early apoptotic (AnnexinV single positive; Ax+/PI-) and late apoptotic/necrotic (AnnexinV/propidium iodide double positive; Ax+/PI+) cells using a kit from Bender Med. Systems Inc. (Vienna, AT). Cell viability was evaluated by a nonisotopic MTT (3-(4,5-dimethylthiazolyl-2)-2,5-diphenyltetrazolium bromide) assay (Ez4U) in 96-well culture plates as described by the manufacturer (Biomedica, AT).

CLL cells [4] = assay: ex vivo CLL microenvironment model (co-culture with primary human bone marrow stromal cells)
[5] = chronic stimulation with PMA, after 3 days, CLL cells
[6] = RO4929097 0.5µM, PMA-activated CLL cells expressing a GSI resistant form of nuclear NOTCH2

For `C[C@H](NC(=O)Cc1cc(F)cc(F)c1)C(=O)N[C@H](C(=O)OC(C)(C)C)c1ccccc1` [DAPT], the “nuclear NOTCH2 activity” value ([1]; 5µM DAPT, majority of CLL cases, Fig. 1A and B) was “no effect” and the “sensitivity of DNA-bound NOTCH2 complexes to GSI” value ([1]; majority of CLL cases, Fig. 2B) was “less sensitive/resistant”.

For `CCCCCCCCCCCCCC(=O)O[C@@H]1[C@@H](C)[C@@]2(O)[C@@H](C=C(CO)C[C@]3(O)C(=O)C(C)=C[C@@H]23)[C@@H]2C(C)(C)[C@]12OC(C)=O` [PMA], the “expression of all NOTCH ligands” value ([2]; PMA-activated CLL cells, Fig 2C, lane 4) was “downregulation”, the NOTCH3 expression [2, 5] was “upregulation” and the NR4A1 expression [2, 5] was “upregulation”.

With `CC(C)(C(=O)NCC(F)(F)C(F)(F)F)C(=O)N[C@@H]1C(=O)Nc2ccccc2-c2ccccc21` [RO4929097] the gliotoxin mediated apoptosis (CLL cells [3]; RO4929097 0.5µM with gliotoxin 0.2µM, PMA-activated CLL cells expressing a GSI resistant form of nuclear NOTCH2, Fig 3B) was “counteracts”, the spontaneous apoptosis (CLL cells [3]; RO4929097 0.5µM, PMA-activated CLL cells expressing a GSI resistant form of nuclear NOTCH2, Fig 3B) was “counteracts” and the NOTCH3 expression [2, 6] was “inhibits”. For the same compound, the NR4A1 expression [2, 6] was “inhibits”.

With `CN1C(=O)[C@]23CC4=CC=C[C@H](O)[C@H]4N2C(=O)[C@@]1(CO)SS3` [gliotoxin] the “apoptosis in CLL cells” value (CLL cells [3]) was “efficiently induced apoptosis”, the “protective effect of PMA on CLL cells” value (CLL cells [3]) was “reversed the protective effect of PMA” and the “anti-apoptotic effect of bone marrow stromal cells” value (CLL cells [4]) was “could also overcome the anti-apoptotic effect”. The NOTCH2 signalling [2] was “rapidly inhibited”, the “NOTCH3 mRNA expression” value [2] was “upregulated” and the “NR4A1 mRNA expression” value [2] was “upregulated”. The “co-expression of NOTCH3 and its ligand JAG2 (unstimulated cells) or DLL1 (PMA activated cells)” value [2] was “induced co-expression”, the “NOTCH2 at the transcription factor level” value [1] was “inhibits NOTCH2 at the transcription factor level” and the NOTCH2 transactivation [1] was “potent NOTCH2 transactivation inhibitor”. The “assembly of the ternary NOTCH2 (N2^IC / Mastermind / CSL) transcription factor complex on DNA” value [1] was “interferes with the assembly”.
